Consider 15 molecules from ChEMBL document CHEMBL4196171, “Design of Gut-Restricted Thiazolidine Agonists of G Protein-Coupled Bile Acid Receptor 1 (GPBAR1, TGR5)” (J Med Chem, 2018).

The structures appear in SMILES notation. Converted amounts (≈) assume the structure as drawn.

Series [1] can be described thus: Plasma concentration in C57BL/6 mouse at 30 mg/kg, po measured after 8 hrs by HPLC and mass spectrometry. Type of series: ADME, organism-based.
A short description of series [2]: Drug concentration in bile/gall bladder of C57BL/6 mouse at 30 mg/kg, po measured after 8 hrs by HPLC and mass spectrometry. Type of series: ADME, organism-based. The note with it: read-out: Drug uptake.
Series [3] can be described thus: Solubility in FeSSIF solution at 1 mg/ml at […] by HPLC with UV detector based assay. Type of series: physicochemical.
A short description of series [4]: Cmax in C57BL/6 mouse plasma at 10 mg/kg, po by HPLC and mass spectrometry. Type of series: ADME, organism-based. Set-up: dose 10 mg/kg, route oral.
Series [5] can be described thus: Plasma concentration in C57BL/6 DIO mouse at 30 mg/kg, po measured after 4 to 16 hrs post dose by HPLC and mass spectrometry. Type of series: ADME, organism-based. The note with it: in vivo.
Series [6] is described as follows: Plasma concentration in C57BL/6 DIO mouse at 100 mg/kg, po measured after 4 to 16 hrs post dose by HPLC and mass spectrometry. Type of series: ADME, organism-based. The note with it: in vivo.
Series [7] is described as follows: Apparent permeability from apical to basolateral side in MDCK cells at 10 uM by HPLC-MS/MS method. Type of series: ADME, cell-based, Canis lupus familiaris. The conditions noted are these: dog.
A short description of series [8]: Drug recovery in C57BL/6 mouse feces at 10 mg/kg, po after 48 hrs by LC-MS/MS method. Type of series: ADME, organism-based. The conditions noted are these: faeces, read-out: Drug recovery.
A short description of series [9]: AUC in C57BL/6 mouse plasma at 10 mg/kg, po by HPLC and mass spectrometry. Type of series: ADME, organism-based.
The nature of series [10]: Apparent permeability from basolateral to apical side in MDCK cells at 10 uM by HPLC-MS/MS method. Type of series: ADME, cell-based, Canis lupus familiaris. The conditions noted are these: dog.
Series [11] in a line: Drug recovery in C57BL/6 mouse bile/gall bladder at 30 mg/kg, po by LC-MS/MS method. Type of series: ADME, organism-based. The conditions noted are these: read-out: Drug recovery.

As to `C[C@@H](NC(=O)[C@@H](C)NC(=O)[C@@H](C)NC(=O)CCCCc1cc(Cl)c(CN2CSC[C@H]2C(=O)N2CCN(C3CC3)c3ccccc32)cc1Cl)C(=O)O`, the concentration at 8 h was determined as 0.6 ng/mL in [1] and 1700 nM in [2].

In the case of `O=C(NCCCN(CCCNC(=O)[C@H](O)[C@@H](O)[C@H](O)[C@H](O)CO)C(=O)NCCCCOc1cc(Cl)c(CN2CSC[C@H]2C(=O)N2CCN(C3CC3)c3ccccc32)cc1Cl)[C@H](O)[C@@H](O)[C@H](O)[C@H](O)CO`, the concentration at 8 h in [2] is 300 nM.

Broadly, the solubility is how much of the substance goes into solution per volume. `O=C([C@@H]1CCCN1Cc1cc(Cl)ccc1Cl)N1CCN(C2CC2)c2ccccc21`: the solubility in series [3] was found to be 360 µg/mL (≈ 836 µM).

For `O=C(NCCCCCc1cc(Cl)c(CN2CSC[C@H]2C(=O)N2CCN(C3CC3)c3ccccc32)cc1Cl)N1CCN(CP(=O)(O)O)CC1`, the concentration at 8 h in [1] is 2.8 ng/mL; in series [2] it was 80 nM.

On to `O=C(NCCCCCc1cc(Cl)c(CN2CSC[C@H]2C(=O)N2CCN(C3CC3)c3ccccc32)cc1Cl)NC(CO)(CO)CO`, for which the results for the concentration at 8 h in series [1] and in [2] were 1.2 ng/mL and 6000 nM, respectively.

Take `O=C(O)CN(C[C@H](O)[C@@H](O)[C@H](O)[C@H](O)CO)C(=O)CCCCc1cc(Cl)c(CN2CSC[C@H]2C(=O)N2CCN(C3CC3)c3ccccc32)cc1Cl`: the concentration at 8 h in series [2] turned out to be 3700 nM.

On to `O=C(O)CN(CCCCCc1cc(Cl)c(CN2CSC[C@H]2C(=O)N2CCN(C3CC3)c3ccccc32)cc1Cl)CC(=O)O`, for which the concentration at 8 h in series [2] came to 4700 nM.

The Cmax is the maximum level reached in the sampled fluid or tissue. Broadly, the Papp A→B is how fast a substance crosses the layer from the apical side. What is called AUC is the area under the concentration-time curve, a measure of exposure. High values mean more exposure, low ones less exposure. Usually Papp B→A stands for how fast a substance crosses the layer from the basolateral side. `O=C(NC[C@H](O)[C@@H](O)[C@H](O)[C@H](O)CO)c1ccc(COc2cc(Cl)c(CN3CSC[C@H]3C(=O)N3CCN(C4CC4)c4ccccc43)cc2Cl)cc1`: the Cmax in series [4] was determined as 2 ng/mL. In addition, the Drug uptake entry in series [5] and in series [6] was “Not Active” in each case. The molecule also showed a solubility in series [3] of 820 µg/mL (≈ 1080 µM). In addition, the concentration at 8 h in series [1] is below 2 ng/mL; in series [2], 90 nM. The Papp A→B at 10 µM in series [7] was below 0.01 ×10⁻⁶ cm/s. Further, the dose excreted at 48 h in series [8] is 83%. Also, in series [9], the AUC is below 5 ng·h/mL. The basolateral-to-apical permeability (Papp B→A) at 10 µM in series [10] was determined as 0.07 ×10⁻⁶ cm/s. In [11], the dose excreted is below 0.01%.

Consider `CN(C[C@H](O)[C@@H](O)[C@H](O)[C@H](O)CO)C(=O)CC[C@H](NC(=O)CCCCc1cc(Cl)c(CN2CSC[C@H]2C(=O)N2CCN(C3CC3)c3ccccc32)cc1Cl)C(=O)O`, for which the values for the concentration at 8 h in series [1] and in [2] were 2.3 ng/mL and 1900 nM, respectively.

`O=C(O)CNC(=O)[C@H](CSSC[C@H](NC(=O)CC[C@H](NC(=O)CCCCc1cc(Cl)c(CN2CSC[C@H]2C(=O)N2CCN(C3CC3)c3ccccc32)cc1Cl)C(=O)O)C(=O)NCC(=O)O)NC(=O)CC[C@H](NC(=O)CCCCc1cc(Cl)c(CN2CSC[C@H]2C(=O)N2CCN(C3CC3)c3ccccc32)cc1Cl)C(=O)O`: the results for the concentration at 8 h in [1] and in [2] were below 10 ng/mL and below 100 nM, respectively.

`O=C(O)CNC(=O)CNC(=O)CNC(=O)CCCCc1cc(Cl)c(CN2CSC[C@H]2C(=O)N2CCN(C3CC3)c3ccccc32)cc1Cl`: the concentration at 8 h was below 0.5 ng/mL in [1] and 600 nM in [2].

Take `O=C(NCCCCCc1cc(Cl)c(CN2CSC[C@H]2C(=O)N2CCN(C3CC3)c3ccccc32)cc1Cl)NCP(=O)(O)O`: the concentration at 8 h is 24.8 ng/mL in [1] and 3100 nM in series [2].

Regarding `O=C(c1cccnc1Oc1cc(Cl)ccc1Cl)N1CCN(C2CC2)c2ccccc21`, the solubility in series [3] is below 50 µg/mL.

As to `CN(C[C@H](O)[C@@H](O)[C@H](O)[C@H](O)CO)C(=O)CCCCc1cc(Cl)c(CN2CSC[C@H]2C(=O)N2CCN(C3CC3)c3ccccc32)cc1Cl`, the concentration at 8 h in series [1] turned out to be 3.6 ng/mL; in series [2], 1300 nM.

Consider `O=C(CCCCc1cc(Cl)c(CN2CSC[C@H]2C(=O)N2CCN(C3CC3)c3ccccc32)cc1Cl)N[C@@H](C(=O)O)[C@@H](O)[C@H](O)[C@H](O)CO`, for which the values for the concentration at 8 h in series [1] and in [2] were 28.1 ng/mL and 3900 nM, respectively.
